We go through one molecule from patent US12635691B2, “Fipronil containing insecticide gels” (Henkel AG & Co. KGaA, priority 2022, dated 2026).

“Also recorded” adds a separate entry of the source.

A short description of this data set: Migration of fipronil from the gel formula into the container, by container material. Format: physicochemical. The protocol:
When the products are formulated in a gel medium, they are often packaged in the forms of capsules, syringes, or adhesive strips. The packaging materials frequently contain plastics. […] Such plastics may include, but are not limited to, polystyrene/butadiene blend, polyethylene (PE) thermoformed, or PET/PE copolymer […].
Fipronil has a solubility in water around 0.002 g/l (20° C.). At a level of […], fipronil is soluble in the water-based matrix because its solubility in water is 0.002 g/l (20° C., BASF SDS). However, although being soluble in the formula, fipronil tends to migrate, under room temperature conditions and in high temperatures (tested up to 54° C.), into the container (i.e., plastic packaging) depending on the material that the container is made of: • a. […] PET/PE thermoformed→Migration • c. Polyethylene thermoform→Migration • d. Polyethylene injected→No migration • e. Polystyrene→No migration • f. Polystyrene/Butadiene (4%)→migration

As for `N#Cc1nn(-c2c(Cl)cc(C(F)(F)F)cc2Cl)c(N)c1[S+]([O-])C(F)(F)F` (stereo not drawn) [Fipronil, 1-[2,6-Cl2 4-CF3 phenyl] 3-CN 4-[SO—CF3] 5-NH2 pyrazole], the “Migration of fipronil into the container” value reads like this: (container: Glass (used as reference), room temperature and high temperatures (tested up to 54° C.)) “No migration, formula stable; also recorded: no fipronil migration”; (container: PET/PE thermoformed, room temperature and up to 54° C.) “Migration”; (container: Polyethylene injected, room temperature and up to 54° C.) “No migration”; (container: Polyethylene thermoform, room temperature and up to 54° C.) “Migration”; (container: Polystyrene/Butadiene (4%), room temperature and up to 54° C.) “migration”; (container: Polystyrene, room temperature and up to 54° C.) “No migration”.
